From patent publication US12331264B2, “Lipid nanoparticles for delivery of nucleic acids and methods of use thereof” (Akagera Medicines, Inc., priority 2020, dated 2025)

How the values were obtained:
[1] = Apparent pKa of ionizable lipid in LNP by TNS fluorescence; conditions: pH 3, probe TNS (2-(p-toluidino)-6-naphthalene sulfonic acid)
physchem = conditions: pH 3
[2] = Accelerated oxidation of ICLs with H2O2/Fe(III)Cl, UHPLC-CAD; format: physicochemical; conditions: for % of parent lipid peak at time 0, 24 h / % of parent lipid peak at time 0, 48 h / % of parent lipid peak at time 0, 72 h: Table 14, ICL lipid suspensions, 1% H2O2/100 μM Fe(III)Cl, 37° C.; for degradation: after 48 hours of incubation with hydrogen peroxide
Method: Individual lipid stocks (10 mM) were prepared in ethanol and stored at −20° C. […] Liposomal formulations based on AKG-UO-1 and O-11769 ionizable cationic lipids (Table 12) were prepared by combining lipid mixtures of desired composition in 1 mL ethanol with 3 mL 6.25 mM sodium acetate, pH 5.0 at 6 mL/min on a NanoAssemblr (Precision Nanosystems). 3.6 mL of the mixture was retained, while the initial 0.35 mL of the mixture and final 0.05 mL were discarded. Ethanol was removed by buffer exchange into PBS, pH 7.4 by concentrating each liposome preparation using an Aminon-Ultra 4 centrifugal concentrator at 500 g for 10 min at 4° C. and diluting back to the original volume with PBS. This cycle was repeated multiple times until the ethanol concentration was <1%. Finally, liposomes were sterile filtered through 0.2 μm PES (Nalgene) syringe filters and size measured by a ZetaSizer (Malvern).
Aliquots of the liposomal formulations were stored at −80° C. and thawed before the experiment. A combined stock in water of 10% H2O2 (Sigma-Aldrich, cat #H1009) and 1 mM of Fe(III)Cl (Sigma-Aldrich, cat #372870) was freshly prepared prior to the treatment. To make 1% final concentration of H2O2 and 100 μM Fe(III)Cl, 10 μl of 10% H2O2/1 mM Fe(III)Cl stock was added to 90 μl of both liposomal formulations and individual lipids The liposomes and individual lipids were incubated with H2O2/Fe(III)Cl at 37° C. and then 5 μl from each sample was taken at different time points (0, 3, 24, 48 and 72 hours) and dissolved in 90 μl of MeOH for HPLC analysis. Degradation of the main lipid peak was analyzed using Thermo Scientific Vanquish Flex UHPLC occupied with Charged Aerosol Detector (CAD) and Thermo Scientific Accucore™ C18+ UHPLC column (L=50 mm, D=2.1 mm, Particle Size=1.5 μm).
The data are presented as a percentage of the main lipid peak measured at different time points relative to the lipid peak measured at time zero.

Row | Structure (SMILES) | pKa [1] | further results
1 | CCCCCC/C=C\CCCCCCCCC1(CCCCCCCC/C=C\CCCCCC)OCC(CCN(C)C)O1 (stereo not drawn) [Compound 4] | 6 to 7 | 
2 | CCC/C=C\CCCC/C=C\CCCCCC1(CCCCC/C=C\CCCC/C=C\CCC)OCC(CCN(C)C)O1 (stereo not drawn) [Compound 5] | 6 to 7 | 
3 | CCCCC/C=C\CCCC/C=C\CCCCCC1(CCCCC/C=C\CCCC/C=C\CCCCC)OCC(CCN(CC)CC)O1 (stereo not drawn) [Compound 6] | 6 to 7 | 
4 | CCC/C=C\CCCC/C=C\CCCCCC1(CCCCC/C=C\CCCC/C=C\CCC)OCC(CCN(CC)CC)O1 (stereo not drawn) [Compound 7] | 6 to 7 | 
5 | CCC/C=C\CCCC/C=C\CCCCCC1(CCCCC/C=C\CCCC/C=C\CCC)OCC(CCCN(C)C)O1 (stereo not drawn) [Compound 8] | 6 to 7 | 
6 | CC/C=C\CCCC/C=C\CCCCCCCC(=O)OC[C@H](COP(=O)(OC)OCCCN(C)C)OC(=O)CCCCCCC/C=C\CCCC/C=C\CC (stereo partly drawn) [Compound 20] | 6 to 7 | 
7 | CC/C=C\CCCC/C=C\CCCCCCCC(=O)OC[C@H](COP(=O)(OC)OCCCN(CC)CC)OC(=O)CCCCCCC/C=C\CCCC/C=C\CC (stereo partly drawn) [Compound 21] | 6 to 7 | 
8 | CC/C=C\CCCC/C=C\CCCCCCCC(=O)OC[C@H](COP(=O)(OC)OCCCCN(C)C)OC(=O)CCCCCCC/C=C\CCCC/C=C\CC (stereo partly drawn) [Compound 22] | 6 to 7 | 
9 | CCC/C=C\CCCC/C=C\CCCCC(=O)OC[C@H](COP(=O)(OC)OCCCN(C)C)OC(=O)CCCC/C=C\CCCC/C=C\CCC (stereo partly drawn) [Compound 26] | 6 to 7 | 
10 | CCC/C=C\CCCC/C=C\CCCCC(=O)OC[C@H](COP(=O)(OC)OCCCN(CC)CC)OC(=O)CCCC/C=C\CCCC/C=C\CCC (stereo partly drawn) [Compound 27] | 6 to 7 | 
11 | CCC/C=C\CCCC/C=C\CCCCC(=O)OC[C@H](COP(=O)(OC)OCCCCN(C)C)OC(=O)CCCC/C=C\CCCC/C=C\CCC (stereo partly drawn) [Compound 28] | 6 to 7 | 
12 | CCCCCCCC/C=C\CCSSCCCCC1(CCCCSSCC/C=C\CCCCCCCC)OCC(CCN(C)C)O1 (stereo not drawn) [Compound 29] | 6 to 7 | 
13 | CCCCCC/C=C\CCSSCCCCC1(CCCCSSCC/C=C\CCCCCC)OCC(CCN(C)C)O1 (stereo not drawn) [Compound 30] | 6 to 7 | 
14 | CCCCCCCC/C=C\CCSSCCCCC(CCCCSSCC/C=C\CCCCCCCC)OC(=O)CCCN(C)C [Compound 31] | 6 to 7 | 
15 | CCCCCC/C=C\CCSSCCCCC(CCCCSSCC/C=C\CCCCCC)OC(=O)CCCN(C)C [Compound 32] | 6 to 7 | 
16 | CCCCCC/C=C\CCSSCCCC(=O)OC[C@H](CCN(C)C)OC(=O)CCCSSCC/C=C\CCCCCC [Compound 34] | 6 to 7 | 
17 | CC(C)CCC[C@@H](C)[C@H]1CCC2[C@@H]3CC=C4CC(SSCCCN(C)C)CC[C@]4(C)[C@H]3CC[C@@]21C (stereo partly drawn) [Compound 35] |  | pKa (physchem): 6 to 7
18 | CC(C)CCC[C@@H](C)[C@H]1CCC2[C@@H]3CC=C4CC(SSCCCCN(C)C)CC[C@]4(C)[C@H]3CC[C@@]21C (stereo partly drawn) [Compound 36] |  | pKa (physchem): 6 to 7
19 | CCCCC/C=C\C/C=C\CCCCCCCC(=O)OC[C@H](CCN(C)C)OC(=O)CCCCCCC/C=C\C/C=C\CCCCC [Compound O-11769] |  | % of parent lipid peak at time 0, 24 h [2]: 31 ± 0.9%; % of parent lipid peak at time 0, 48 h [2]: 1 ± 0.2%; % of parent lipid peak at time 0, 72 h [2]: 0.3 ± 0.1%; degradation [2]: fully degraded
20 | CCCCC/C=C\C/C=C\CCCCCCCCC1(CCCCCCCC/C=C\C/C=C\CCCCC)OCC(CCN(C)C)O1 (stereo not drawn) [KC2, DLin-KC2-DMA] |  | % of parent lipid peak at time 0, 24 h [2]: 35 ± 0.7%; % of parent lipid peak at time 0, 48 h [2]: 6 ± 1.9%; % of parent lipid peak at time 0, 72 h [2]: 0 ± 0.0%; degradation [2]: fully degraded
21 | CCCCC/C=C\CCCC/C=C\CCCCCC1(CCCCC/C=C\CCCC/C=C\CCCCC)OC[C@H](CCN(C)C)O1 [KC2-01, 2-((S)-2,2-di((6Z,12Z)-octadeca-6,12-dien-1-yl)-1,3-dioxolan-4-yl)-N,N-dimethylethan-1-amine] |  | % of parent lipid peak at time 0, 24 h [2]: 91 ± 0.3%; % of parent lipid peak at time 0, 48 h [2]: 87 ± 0.9%; % of parent lipid peak at time 0, 72 h [2]: 83 ± 0.3%
22 | CCCCC/C=C\C/C=C\CCCCCCCCC1(CCCCCCCC/C=C\C/C=C\CCCCC)OCC(CCCN(C)C)O1 (stereo not drawn) [KC3, Dlin-KC3-DMA] |  | % of parent lipid peak at time 0, 24 h [2]: 46 ± 1.8%; % of parent lipid peak at time 0, 48 h [2]: 1 ± 0.2%; % of parent lipid peak at time 0, 72 h [2]: 0 ± 0.0%; degradation [2]: fully degraded
23 | CCCCC/C=C\CCCC/C=C\CCCCCC1(CCCCC/C=C\CCCC/C=C\CCCCC)OC[C@H](CCCN(C)C)O1 [KC3-01, 3-((S)-2,2-di((6Z,12Z)-octadeca-6,12-dien-1-yl)-1,3-dioxolan-4-yl)-N,N-dimethylpropan-1-amine] |  | % of parent lipid peak at time 0, 24 h [2]: 83 ± 4.3%; % of parent lipid peak at time 0, 48 h [2]: 80 ± 0.4%; % of parent lipid peak at time 0, 72 h [2]: 74 ± 2.2%
24 | CCCCC/C=C\CCCC/C=C\CCCCC(=O)OC[C@H](CCN(C)C)OC(=O)CCCC/C=C\CCCC/C=C\CCCCC [UO-1] |  | % of parent lipid peak at time 0, 24 h [2]: 78 ± 0.6%; % of parent lipid peak at time 0, 48 h [2]: 74 ± 0.1%; % of parent lipid peak at time 0, 72 h [2]: 65 ± 2.5%

Further lines, with some results ahead:

Row | pKa [1] | Structure (SMILES) | further results
25 | 6 to 7 | CCCCC/C=C\CCCC/C=C\CCCCCC1(CCCCC/C=C\CCCC/C=C\CCCCC)OCC(CCN(C)C)O1 (stereo not drawn) [Compound 1] | 
26 | 6 to 7 | CC/C=C\CCCC/C=C\CCCCCCCCC1(CCCCCCCC/C=C\CCCC/C=C\CC)OCC(CCN(C)C)O1 (stereo not drawn) [Compound 2] | 
27 | 6 to 7 | CCCCC/C=C\CCCC/C=C\CCCCCC1(CCCCC/C=C\CCCC/C=C\CCCCC)OCC(CCCN(C)C)O1 (stereo not drawn) [Compound 3] | 
28 | 6 to 7 | CCCCC/C=C\CCCC/C=C\CCCCCC(CCCCC/C=C\CCCC/C=C\CCCCC)OC(=O)CCCN(C)C [Compound 9] | 
29 | 6 to 7 | CC/C=C\CCCC/C=C\CCCCCCCCC(CCCCCCCC/C=C\CCCC/C=C\CC)OC(=O)CCCN(C)C [Compound 10] | 
30 | 6 to 7 | CCCCC/C=C\CCCC/C=C\CCCCCC(CCCCC/C=C\CCCC/C=C\CCCCC)OC(=O)CCCN(CC)CC [Compound 11] | 
31 | 6 to 7 | CCCCC/C=C\CCCC/C=C\CCCCCC(CCCCC/C=C\CCCC/C=C\CCCCC)OC(=O)CCCCN(C)C [Compound 12] | 
32 | 6 to 7 | CCCCCC/C=C\CCCCCCCCC(CCCCCCCC/C=C\CCCCCC)OC(=O)CCCN(C)C [Compound 13] | 
33 | 6 to 7 | CCC/C=C\CCCC/C=C\CCCCCC(CCCCC/C=C\CCCC/C=C\CCC)OC(=O)CCCN(C)C [Compound 14] | 
34 | 6 to 7 | CCC/C=C\CCCC/C=C\CCCCCC(CCCCC/C=C\CCCC/C=C\CCC)OC(=O)CCCCN(C)C [Compound 15] | 
35 | 6 to 7 | CCC/C=C\CCCC/C=C\CCCCCC(CCCCC/C=C\CCCC/C=C\CCC)OC(=O)CCCN(CC)CC [Compound 16] | 
36 | 6 to 7 | CC/C=C\CCCC/C=C\CCCCCCCC(=O)OC[C@H](CCN(C)C)OC(=O)CCCCCCC/C=C\CCCC/C=C\CC [Compound 17] | 
37 | 6 to 7 | CC/C=C\CCCC/C=C\CCCCCCCC(=O)OC[C@H](CCCN(C)C)OC(=O)CCCCCCC/C=C\CCCC/C=C\CC [Compound 18] | 
38 | 6 to 7 | CC/C=C\CCCC/C=C\CCCCCCCC(=O)OC[C@H](CCN(CC)CC)OC(=O)CCCCCCC/C=C\CCCC/C=C\CC [Compound 19] | 
39 | 6 to 7 | CCC/C=C\CCCC/C=C\CCCCC(=O)OC[C@H](CCN(C)C)OC(=O)CCCC/C=C\CCCC/C=C\CCC [Compound 23] | 
40 | 6 to 7 | CCC/C=C\CCCC/C=C\CCCCC(=O)OC[C@H](CCN(CC)CC)OC(=O)CCCC/C=C\CCCC/C=C\CCC [Compound 24] | 
41 | 6 to 7 | CCC/C=C\CCCC/C=C\CCCCC(=O)OC[C@H](CCCN(C)C)OC(=O)CCCC/C=C\CCCC/C=C\CCC [Compound 25] | 
42 | 6 to 7 | CCCCCCCC/C=C\CCSSCCCC(=O)OC[C@H](CCN(C)C)OC(=O)CCCSSCC/C=C\CCCCCCCC [Compound 33] | 
